“And” between values parts separate entries of the source, which are not always exact repeats. Equal values may be shown once. Read-outs that look alike come from different tables or passages of the source.
Experiments:
[1] = tested on: CR-N309K parasites; assay: Growth inhibition assay (72 h, LDH activity); format: cell-based, Plasmodium falciparum
Description: (§1) Parasite growth assays with inhibitory compounds were performed as per[11] and are fully described in the Supplementary Information.
(§2) Molecular biology and transfection of P. falciparum: CRISPR method.
(§3) The full 5’ homology region of pfstart1 (either WT, N309K or N330K) was amplified from pPfSTART1-HA-2A-Neo-glmS with the same 5’ BglII primer and a new 3’ primer that replaced with PstI with SpeI and introduced a stop codon. The PCR product was then digested with BglII and SpeI and inserted into similarly digested p1.2 parasite vector2. The p1.2 vector had previously been inserted with a homology region amplified from the 3’ end of the pfstart1 gene (3’HB) to form a second homology block for double recombination. The primers used to amplify 3’HB are listed primers listed in […]
(§4) 60 μg of p1.2-PfSTART1(WT/N309K/N330K) plasmid was linearised with KasI, precipitated in 3 M sodium acetate and ethanol (70% final concentration) overnight at -20°C. The DNA pellet was washed in cold 70% ethanol and resuspended in cytomix 3.
(§5) 50 μ M of crRNA ( Table S 2) and 50 μM of tracRNA (Integrated DNA Technologies) were allowed to form a duplex (5 min at 95°C), and Cas9 enzyme (Integrated DNA Technologies) was added, and incubated for 20 min at room temperature 4. This crRNA -tracRNA -Cas9 mix was added to each DNA preparation and transfected to 3D7 ring parasites using the Bio -Rad Gene Pulser at 310 V and 950 μF.
(§6) Parasites containing the transfected DNA were selected using 2.5 nM WR99210 (Jacobus). Parasites lines were cloned using limiting dilution. Correct integration was tested by PCR (using primer START_5’UTR.F and START_Int.R1 , Table S 2), and sequencing was done using the primers START_3F and START_Int.R2 (Table S 2).
(§7) Growth inhibition assays. Synchronised ring-stage parasites (0.3-0.6% parasitemia, 2% haematocrit) were grown for 72 h in a serial-dilution of the compound under […]
(§8) and compound 4. Note that M-833 was first purchased from MolPort (MolPort -002-267-916) then made in-house at WEHI: the differences observed in EC50s across experiments are attributed to the different batches of M -833. For some experiments, 0, 0.25 or 2.5 mM of glucosamine (GlcN) was also added. Experiments were set up in technical duplicates or triplicates. Following a freeze -thaw cycle, lactate dehydrogenase (LDH) activity was assessed as an indicator of parasite growt h 5. 30 μL of parasite culture was incubated for 30 min in the dark with 75 μL Malstat mixture (0.1 M Tris pH 9.0, 20 g/L lactic acid, pH 7.5, 0.2% Triton-X100, 0.5 g/L acetylpyridine adenine dinucleotide (APAD, Sigma), 200 μg/mL nitroblue tetrazolium (NBT; Sigma), 1 μg/mL phenozine ethosulfate (PES; Sigma)). Absorbance was then measured at 650 nm, transformed using the formula below, plotted against the logarithm of the concentrations, and a non-linear regression (log(inhibitor) vs. response, variable slope) was calculated using GraphPad Prism to assess the half-inhibitory […]
(§9) Growth inhibition % = (1 − average(sample)− average(uRBC)) ∗ 100 […]
(§10) The DMSO samples were also used to assess growth of parasite in the presence of 0.25 and 2.5 mM GlcN (normalised by DMSO in 0 mM GlcN).
(§11) Egress, invasion & recovery assay. To measure egress, invasion and follow up recovery in the presence of different compounds, we adapted the method developed in6, using Hyp1-Nluc parasites7. These parasites episomally express the exported PEXEL protein Hyp1 (PF3D7_0113300) tagged with a NanoLuc luciferase (NLuc) and were selected with 2.5 nM WR99210 (Jacobus). Highly synchronised schizonts were obtained using ML10 (LifeArc) and sorbitol synchronisation, and Percoll-purified (the culture was gently layered over 67% Percoll (Cytiva) in RPMI, and centrifuged for 15 min at 1500 g and the schizont layer was collected and washed). In a 96-well plate, […]

[2] = tested on: CR-N330K parasites; assay: Growth inhibition assay (72 h, LDH activity); format: cell-based, Plasmodium falciparum; conditions: for inhibition at 40 µM / inhibition at 0.00203221 µM / inhibition at 0.00609663 µM / inhibition at 0.0182899 µM / inhibition at 0.0548697 µM / inhibition at 0.164609 µM / inhibition at 0.493827 µM / inhibition at 1.48148 µM / inhibition at 4.44444 µM / inhibition at 13.3333 µM / EC50: Plasmodium falciparum; for inhibition at 40 µM / inhibition at 0.00203221 µM / inhibition at 0.00609663 µM / inhibition at 0.0182899 µM / inhibition at 0.0548697 µM / inhibition at 0.164609 µM / inhibition at 0.493827 µM / inhibition at 1.48148 µM / inhibition at 4.44444 µM / inhibition at 13.3333 µM: read-out: Growth inhibition assay, NORMALISED; for inhibition at 0.00203221 µM: conc 2.03221 nM; for inhibition at 0.00609663 µM: conc 6.09663 nM; for inhibition at 0.0182899 µM: conc 18.2899 nM; for inhibition at 0.0548697 µM: conc 54.8697 nM; for inhibition at 0.164609 µM: conc 164.609 nM; for inhibition at 0.493827 µM: conc 493.827 nM; for inhibition at 1.48148 µM: conc 1481.48 nM; for inhibition at 4.44444 µM: conc 4444.44 nM
Description: as §1, §2, §3, §4, §5, §6, §7, §8, §9, §10, §11

[3] = 0.25 mM GlcN, M833 dilution point 1 of 10 (starting concentration 40 uM)
[4] = 2.5 mM GlcN, M833 dilution point 1 of 10 (starting concentration 40 uM)
[5] = 2.5 mM GlcN, M833 dilution point 2 of 10 from 40 uM start
[6] = 2.5 mM GlcN, M833 dilution point 3 of 10 from 40 uM start

## Cc1cc(Cl)c(S(=O)(=O)N2CCCC2)cc1OCC(=O)NC1CCCCC1 [M-833]
[1]; 0 mM GlcN, conc 13333.3 nM
  Growth inhibition assay, NORMALISED: 96.3035 and 81.5013
[1]; 0 mM GlcN, conc 40000 nM
  Growth inhibition assay, NORMALISED: 90.3753
[1]; [3]
  NORMALISED (growth inhibition, LDH absorbance vs DMSO and uRBC): 109.622 and 93.8958 and 89.0356
[1]; 0.25 mM GlcN, M833 dilution point 2 of 10 from 40 uM start
  NORMALISED (growth inhibition, LDH absorbance vs DMSO and uRBC): 100.45 and 85.8318 and 85.1660
[1]; 0.25 mM GlcN, M833 dilution point 3 of 10 from 40 uM start
  NORMALISED (growth inhibition, LDH absorbance vs DMSO and uRBC): 91.9964 and 60.0606 and 52.4793
[1]; [4]
  NORMALISED (growth inhibition, LDH absorbance vs DMSO and uRBC): 151.073 and 87.1969 and 79.8969
[1]; [5]
  NORMALISED (growth inhibition, LDH absorbance vs DMSO and uRBC): 113.734 and 82.9449 and 82.5963
[1]; [6]
  NORMALISED (growth inhibition, LDH absorbance vs DMSO and uRBC): 124.034 and 76.1318 and 75.9272
[1]; Fig 2D
  fold resistance compared to CR-WT: over 81 fold
[1]; Plasmodium falciparum, 0 mM GlcN, conc 40000 nM, read-out: Growth inhibition assay, NORMALISED
  inhibition at 40 µM: 107%
[1]; Plasmodium falciparum, 72 h, read-out: EC50 (95% confidence interval), Fig 2D, 72 h, n = 3
  EC50: 4.03 µM
[1]; Plasmodium falciparum, Fig 3F, 0 mM GlcN, n = 3, read-out: EC50 M-833 (95% confidence interval)
  EC50: 4 µM
[1]; Plasmodium falciparum, read-out: EC50 M-833 (95% confidence interval), Fig 3F, 0.25 mM GlcN, n = 3
  EC50: 2.18 µM
[1]; Plasmodium falciparum, read-out: EC50 M-833 (95% confidence interval), Fig 3F, 2.5 mM GlcN, n = 3
  EC50: 0.768 µM
[1]; not statistically significant
  fold reduction of EC50 on addition of 2.5 mM GlcN: 5.2 fold
[2]
  effect of GlcN addition on EC50: did not impact the EC50
[2]; 0 mM GlcN, conc 13333.3 nM
  Growth inhibition assay, NORMALISED: 83.0053 and 71.7328 and 58.9456
[2]; 0 mM GlcN, conc 40000 nM
  Growth inhibition assay, NORMALISED: 89.2357 and 89.8575
  inhibition at 40 µM: 98.2%
[2]; [3]
  NORMALISED (growth inhibition, LDH absorbance vs DMSO and uRBC): 90.8081 and 87.9797 and 87.1506
[2]; [4]
  NORMALISED (growth inhibition, LDH absorbance vs DMSO and uRBC): 93.6897 and 84.3760 and 68.7638
[2]; [5]
  NORMALISED (growth inhibition, LDH absorbance vs DMSO and uRBC): 66.9588 and 63.6686 and 78.5050
[2]; [6]
  NORMALISED (growth inhibition, LDH absorbance vs DMSO and uRBC): 62.4014 and 35.5339 and 55.9192
[2]; Fig 2D
  fold resistance compared to CR-WT: over 81 fold
[2]; 0.25 mM GlcN
  inhibition at 0.00203221 µM: 1.04%
  inhibition at 0.00609663 µM: 4.9%
  inhibition at 0.0182899 µM: 1.5%
  inhibition at 0.0548697 µM: 3.6%
  inhibition at 0.164609 µM: -2.8%
  inhibition at 0.493827 µM: 5.89%
  inhibition at 1.48148 µM: 18.6%
  inhibition at 4.44444 µM: 54.4%
[2]; 0.25 mM GlcN, conc 13333.3 nM
  inhibition at 13.3333 µM: 83.8%
[2]; 0.25 mM GlcN, conc 40000 nM
  inhibition at 40 µM: 98.3%
[2]; 2.5 mM GlcN
  inhibition at 0.00203221 µM: -48.3%
  inhibition at 0.00609663 µM: -31%
  inhibition at 0.0182899 µM: -30.8%
  inhibition at 0.0548697 µM: -27.3%
  inhibition at 0.164609 µM: -23.4%
  inhibition at 0.493827 µM: -11.7%
  inhibition at 1.48148 µM: 13.1%
  inhibition at 4.44444 µM: 36.6%
[2]; 2.5 mM GlcN, conc 13333.3 nM
  inhibition at 13.3333 µM: 32.3%
[2]; 2.5 mM GlcN, conc 40000 nM
  inhibition at 40 µM: 94%
[2]; 72 h, read-out: EC50 (95% confidence interval), Fig 2D, 72 h, n = 3
  EC50: 9.51 µM
[2]; Fig 3F, 0 mM GlcN, n = 3, read-out: EC50 M-833 (95% confidence interval)
  EC50: 9.5 µM
[2]; read-out: EC50 M-833 (95% confidence interval), Fig 3F, 0.25 mM GlcN, n = 3
  EC50: 8.92 µM
[2]; read-out: EC50 M-833 (95% confidence interval), Fig 3F, 2.5 mM GlcN, n = 3
  EC50: 8.73 µM
